Source: patent US8192962B2, “Processes for detecting toxic substances” (Daikin Industries, Ltd., priority 2001, dated 2012)

System: Genes belonging to other category
Assay: DNA chip mRNA expression in yeast, genes belonging to other category (Table 9)
Type: cell-based, Saccharomyces cerevisiae S288C
In short: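 S. cerevisiae S288C grown at 25° C. in YPD to log phase, then exposed 2 h to a toxicant at a growth-inhibiting, non-lethal concentration; untreated cells as control. Poly(A) mRNA reverse-transcribed with Cy3-dUTP or Cy5-dUTP, hybridized >12 h at 65° C. to whole-genome yeast DNA chip; value = fluorescence ratio treated/untreated.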

Substance: manganese ethylenebis(dithiocarbamate) [(8)]
- The level of expressed mRNA in the presence of chemical substance/The level of expressed mRNA in the absence of chemical substance (yeast gene YKL008C): 1.2
- The level of expressed mRNA in the presence of chemical substance/The level of expressed mRNA in the absence of chemical substance (yeast gene YKL013C): 0.9
- The level of expressed mRNA in the presence of chemical substance/The level of expressed mRNA in the absence of chemical substance (yeast gene YKL039W): 0.8
- The level of expressed mRNA in the presence of chemical substance/The level of expressed mRNA in the absence of chemical substance (yeast gene YKL096W): 0.5
- The level of expressed mRNA in the presence of chemical substance/The level of expressed mRNA in the absence of chemical substance (yeast gene YKL165C): 1.5
- The level of expressed mRNA in the presence of chemical substance/The level of expressed mRNA in the absence of chemical substance (yeast gene YKL193C): 1.4
- The level of expressed mRNA in the presence of chemical substance/The level of expressed mRNA in the absence of chemical substance (yeast gene YLR120C): 0.9
- The level of expressed mRNA in the presence of chemical substance/The level of expressed mRNA in the absence of chemical substance (yeast gene YLR136C): 1.1
- The level of expressed mRNA in the presence of chemical substance/The level of expressed mRNA in the absence of chemical substance (yeast gene YLR178C): 0.9
- The level of expressed mRNA in the presence of chemical substance/The level of expressed mRNA in the absence of chemical substance (yeast gene YLR250W): 1.3
- The level of expressed mRNA in the presence of chemical substance/The level of expressed mRNA in the absence of chemical substance (yeast gene YLR327C): 2.2
- The level of expressed mRNA in the presence of chemical substance/The level of expressed mRNA in the absence of chemical substance (yeast gene YLR356W): 0.7
- The level of expressed mRNA in the presence of chemical substance/The level of expressed mRNA in the absence of chemical substance (yeast gene YLR362W): 1.4
- The level of expressed mRNA in the presence of chemical substance/The level of expressed mRNA in the absence of chemical substance (yeast gene YLR391W): 0.7
- The level of expressed mRNA in the presence of chemical substance/The level of expressed mRNA in the absence of chemical substance (yeast gene YLR429W): 1.0
- The level of expressed mRNA in the presence of chemical substance/The level of expressed mRNA in the absence of chemical substance (yeast gene YMR004W): 1.0
- The level of expressed mRNA in the presence of chemical substance/The level of expressed mRNA in the absence of chemical substance (yeast gene YMR094W): 1.0
- The level of expressed mRNA in the presence of chemical substance/The level of expressed mRNA in the absence of chemical substance (yeast gene YMR104C): 0.9
- The level of expressed mRNA in the presence of chemical substance/The level of expressed mRNA in the absence of chemical substance (yeast gene YMR219W): 1.1
- The level of expressed mRNA in the presence of chemical substance/The level of expressed mRNA in the absence of chemical substance (yeast gene YMR226C): 1.6
- The level of expressed mRNA in the presence of chemical substance/The level of expressed mRNA in the absence of chemical substance (yeast gene YMR275C): 0.8
- The level of expressed mRNA in the presence of chemical substance/The level of expressed mRNA in the absence of chemical substance (yeast gene YMR276W): 0.8
- The level of expressed mRNA in the presence of chemical substance/The level of expressed mRNA in the absence of chemical substance (yeast gene YMR314W): 1.2
- The level of expressed mRNA in the presence of chemical substance/The level of expressed mRNA in the absence of chemical substance (yeast gene YNL006W): 1.1
- The level of expressed mRNA in the presence of chemical substance/The level of expressed mRNA in the absence of chemical substance (yeast gene YNL007C): 0.8
- The level of expressed mRNA in the presence of chemical substance/The level of expressed mRNA in the absence of chemical substance (yeast gene YNL093W): 0.8
- The level of expressed mRNA in the presence of chemical substance/The level of expressed mRNA in the absence of chemical substance (yeast gene YNL333W): 2.1
- The level of expressed mRNA in the presence of chemical substance/The level of expressed mRNA in the absence of chemical substance (yeast gene YNR010W): 1.1
- The level of expressed mRNA in the presence of chemical substance/The level of expressed mRNA in the absence of chemical substance (yeast gene YNR069C): 1.4
- The level of expressed mRNA in the presence of chemical substance/The level of expressed mRNA in the absence of chemical substance (yeast gene YOL013C): 1.0
- The level of expressed mRNA in the presence of chemical substance/The level of expressed mRNA in the absence of chemical substance (yeast gene YOL164W): 1.0
- The level of expressed mRNA in the presence of chemical substance/The level of expressed mRNA in the absence of chemical substance (yeast gene YOR036W): 1.4
- The level of expressed mRNA in the presence of chemical substance/The level of expressed mRNA in the absence of chemical substance (yeast gene YOR117W): 1.0
- The level of expressed mRNA in the presence of chemical substance/The level of expressed mRNA in the absence of chemical substance (yeast gene YOR124C): 1.3
- The level of expressed mRNA in the presence of chemical substance/The level of expressed mRNA in the absence of chemical substance (yeast gene YOR132W): 1.2
- The level of expressed mRNA in the presence of chemical substance/The level of expressed mRNA in the absence of chemical substance (yeast gene YOR157C): 1.2
- The level of expressed mRNA in the presence of chemical substance/The level of expressed mRNA in the absence of chemical substance (yeast gene YOR181W): 0.7
- The level of expressed mRNA in the presence of chemical substance/The level of expressed mRNA in the absence of chemical substance (yeast gene YOR185C): 1.4
- The level of expressed mRNA in the presence of chemical substance/The level of expressed mRNA in the absence of chemical substance (yeast gene YOR198C): 1.3
- The level of expressed mRNA in the presence of chemical substance/The level of expressed mRNA in the absence of chemical substance (yeast gene YOR259C): 1.1
- The level of expressed mRNA in the presence of chemical substance/The level of expressed mRNA in the absence of chemical substance (yeast gene YOR261C): 2.6
- The level of expressed mRNA in the presence of chemical substance/The level of expressed mRNA in the absence of chemical substance (yeast gene YOR288C): 1.9
- The level of expressed mRNA in the presence of chemical substance/The level of expressed mRNA in the absence of chemical substance (yeast gene YOR355W): 0.8
- The level of expressed mRNA in the presence of chemical substance/The level of expressed mRNA in the absence of chemical substance (yeast gene YOR383C): 1.0
- The level of expressed mRNA in the presence of chemical substance/The level of expressed mRNA in the absence of chemical substance (yeast gene YPL089C): 0.8
- The level of expressed mRNA in the presence of chemical substance/The level of expressed mRNA in the absence of chemical substance (yeast gene YPL109C): 1.1
- The level of expressed mRNA in the presence of chemical substance/The level of expressed mRNA in the absence of chemical substance (yeast gene YPL149W): 1.1
- The level of expressed mRNA in the presence of chemical substance/The level of expressed mRNA in the absence of chemical substance (yeast gene YPL154C): 0.8
- The level of expressed mRNA in the presence of chemical substance/The level of expressed mRNA in the absence of chemical substance (yeast gene YPR103W): 1.0
- The level of expressed mRNA in the presence of chemical substance/The level of expressed mRNA in the absence of chemical substance (yeast gene YPR108W): 1.6
